Legend:
[1] = test system: barnyardgrass; assay: Test B pre-/postemergence herbicide test; type: in vivo, Echinochloa crus-galli
In short: (§1)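 Visual rating, 0 (no effect) to 100 (complete control), versus untreated controls after 13–15 d in greenhouse. Pre- and postemergence applications (postemergence plants 2–18 cm, 1–4 leaves); flooded paddy arm at 2-leaf stage. Compounds in non-phytotoxic solvent plus surfactant.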

[2] = test system: Surinam grass; assay: Test B pre-/postemergence herbicide test; type: in vivo, Urochloa decumbens
In short: (§2)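 Evaluation is visual, comparing treated with control plants on a scale where 0 means no effect and 100 means full control. Treatments were preemergence, or postemergence on seedlings 2–18 cm tall, and held 13–15 days in the greenhouse.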

[3] = test system: cocklebur; assay: Test B pre-/postemergence herbicide test; type: in vivo, Xanthium strumarium
In short: as §1

[4] = test system: corn; assay: Test B pre-/postemergence herbicide test; type: in vivo, Zea mays
In short: as §2

[5] = test system: large crabgrass; assay: Test B pre-/postemergence herbicide test; type: in vivo, Digitaria sanguinalis
In short: as §2

[6] = test system: giant foxtail; assay: Test B pre-/postemergence herbicide test; type: in vivo, Setaria faberi
In short: as §2

[7] = test system: lambsquarters; assay: Test B pre-/postemergence herbicide test; type: in vivo, Chenopodium album
In short: as §2

[8] = test system: morningglory; assay: Test B pre-/postemergence herbicide test; type: in vivo, Ipomoea coccinea
In short: as §1

[9] = test system: pigweed; assay: Test B pre-/postemergence herbicide test; type: in vivo, Amaranthus retroflexus
In short: as §2

[10] = test system: velvetleaf; assay: Test B pre-/postemergence herbicide test; type: in vivo, Abutilon theophrasti
In short: as §2

[11] = test system: blackgrass; assay: Test B postemergence herbicide test; type: in vivo, Alopecurus myosuroides
In short: (§3)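 Visual ratings, 0 (no effect) to 100 (complete control), made versus controls after 13–15 d greenhouse. Paddy plants treated at 2-leaf stage; postemergence plants at 1- to 4-leaf stage, 2–18 cm tall.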

[12] = test system: wheat; assay: Test B postemergence herbicide test; type: in vivo, Triticum aestivum; design: key to Wheat plant response rating: 0 = no effect, 100 = complete control
In short: as §3

[13] = test system: wild oat; assay: Test B postemergence herbicide test; type: in vivo, Avena fatua
In short: as §3

[14] = test system: rice; assay: Test B flooded paddy test; type: in vivo, Oryza sativa; settings: 1000 g ai/ha, scale 0 to 100 (0 no effect, 100 complete control)
In short: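 Each value is a visual 0–100 response rating taken against controls 13 to 15 days after treatment in the greenhouse. Plants received formulated chemical postemergence at the 1- to 4-leaf stage or, in flooded paddy, at the 2-leaf stage.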

[15] = test system: small flower umbrella sedge; assay: Test B flooded paddy test; type: in vivo, Cyperus difformis; settings: 1000 g ai/ha, scale 0 to 100 (0 no effect, 100 complete control)
In short: as §3

[16] = test system: ducksalad; assay: Test B flooded paddy test; type: in vivo, Heteranthera limosa; settings: 1000 g ai/ha, scale 0 to 100 (0 no effect, 100 complete control)
In short: as §3

[17] = test system: barnyardgrass; assay: Test B flooded paddy test; type: in vivo, Echinochloa crus-galli; settings: 1000 g ai/ha, scale 0 to 100 (0 no effect, 100 complete control)
In short: as §3

[18] = test system: rice; assay: Test C flooded paddy test; type: in vivo, Oryza sativa; settings: for Plant response rating, Rice: 500 g ai/ha, visual rating after 12 to 14 days
In short: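 Postemergence sprays applied to plants 2 to 18 cm tall (1- to 4-leaf stage); paddy species grown to 2-leaf stage under flooding. After 12 to 14 days in greenhouse, visual rating versus untreated controls on 0–100 scale (0 no effect, 100 complete control).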

[19] = test system: smallflower umbrella sedge; assay: Test C flooded paddy test; type: in vivo, Cyperus difformis; settings: for Plant response rating, Sedge, Umbrella: 500 g ai/ha, visual rating after 12 to 14 days
[20] = test system: ducksalad; assay: Test C flooded paddy test; type: in vivo, Heteranthera limosa; settings: for Plant response rating, Ducksalad: 500 g ai/ha, visual rating after 12 to 14 days
[21] = test system: barnyardgrass; assay: Test C flooded paddy test; type: in vivo, Echinochloa crus-galli; settings: for Plant response rating, Barnyardgrass: 500 g ai/ha, visual rating after 12 to 14 days
In short: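 Injury scored visually against controls on a 0 (no effect) to 100 (complete control) scale, 12 to 14 days after treatment in greenhouse. Flooded paddy plants treated at 2-leaf stage; postemergence plants at 1- to 4-leaf stage, 2 to 18 cm tall.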

[22] = 500 g ai/ha, visual rating 0-100, 0 no effect, 100 complete control, preemergence
[23] = Postemergence, 500 g ai/ha, visual rating after 13 to 15 days, scale 0 (no effect) to 100 (complete control)
[24] = postemergence, 125 g ai/ha, visual rating, scale 0 (no effect) to 100 (complete control)
[25] = preemergence, 125 g ai/ha, 0 to 100 scale, 0 is no effect, 100 is complete control
[26] = 62 g ai/ha, scale 0 to 100 (0 no effect, 100 complete control)
[27] = 125 g ai/ha, scale of 0 to 100, 0 is no effect, 100 is complete control
[28] = 250 g ai/ha, scale of 0 to 100, 0 is no effect, 100 is complete control
[29] = scale 0 to 100 (0 no effect, 100 complete control)
[30] = 125 g ai/ha, 0 is no effect, 100 is complete control, preemergence
[31] = Postemergence, 500 g ai/ha, scale 0 (no effect) to 100 (complete control)
[32] = postemergence, 125 g ai/ha, scale 0 to 100
[33] = 125 g ai/ha, scale 0 to 100 (0 no effect, 100 complete control)

CON=C(C)c1cccc(NC(=O)c2cc(C(C)(C)C)nn2C)c1 [Compound 106]
20: Plant response rating, Surinam Grass [2, 22] | Cocklebur plant response rating [3, 24] | Plant response rating, Pigweed [9, 23] | Plant response rating, Velvetleaf [10, 23] | Plant response rating, Oat, Wild [13, 23] | Plant response rating, Rice [18, 29]
100: Plant response rating, Crabgrass, Large [5, 22] | Plant response rating, Lambsquarters [7, 22]
0: Plant response rating, Barnyardgrass [1, 23] | Barnyardgrass plant response rating [1, 24] | Plant response rating, Surinam Grass [2, 25] | Plant response rating, Cocklebur [3, 22] | Plant response rating, Cocklebur [3, 25] | Plant response rating, Corn [4, 22] | Plant response rating, Corn [4, 25] | Crabgrass, Large plant response rating [5, 24] | Plant response rating, Foxtail, Giant [6, 23] | Foxtail, Giant plant response rating [6, 24] | Plant response rating, Lambsquarters [7, 25] | Plant response rating, Pigweed [9, 25] | Plant response rating, Velvetleaf [10, 22] | Velvetleaf plant response rating [10, 24] | Plant response rating, Velvetleaf [10, 25] | Plant response rating, Blackgrass [11, 23] | Blackgrass plant response rating [11, 24] | Plant response rating, Wheat [12, 23] | Wheat plant response rating [12, 24] | Rice plant response rating ([14]; visual rating, 13 to 15 days) | Barnyardgrass plant response rating ([17]; visual rating, 13 to 15 days) | Rice plant response rating [18, 26] | Rice plant response rating [18, 27] | Rice plant response rating [18, 28] | Sedge, Umbrella plant response rating [19, 26] | Sedge, Umbrella plant response rating [19, 27] | Ducksalad plant response rating [20, 26] | Ducksalad plant response rating [20, 27] | Ducksalad plant response rating [20, 28] | Plant response rating, Ducksalad [20, 29] | Barnyardgrass plant response rating [21, 26] | Barnyardgrass plant response rating [21, 27] | Barnyardgrass plant response rating [21, 28] | Plant response rating, Barnyardgrass [21, 29]
80: Ducksalad plant response rating ([16]; visual rating, 13 to 15 days) | Plant response rating, Sedge, Umbrella [19, 29]
50: Plant response rating, Cocklebur [3, 23] | Lambsquarters plant response rating [7, 24]
30: Sedge, Umbrella plant response rating [19, 28]
70: Plant response rating, Barnyardgrass [1, 22] | Plant response rating, Pigweed [9, 22]
40: Plant response rating, Foxtail, Giant [6, 22]
90: Plant response rating, Crabgrass, Large [5, 25] | Plant response rating, Lambsquarters [7, 23] | Sedge, Umbrella plant response rating ([15]; visual rating, 13 to 15 days)
10: Plant response rating, Surinam Grass [2, 23] | Surinam Grass plant response rating [2, 24] | Plant response rating, Corn [4, 23] | Corn plant response rating [4, 24] | Plant response rating, Crabgrass, Large [5, 23] | Plant response rating, Foxtail, Giant [6, 25] | Plant response rating, Morningglory [8, 22] | Plant response rating, Morningglory [8, 23] | Morningglory plant response rating [8, 24] | Pigweed plant response rating [9, 24] | Oat, Wild plant response rating [13, 24]

CCN(C)C(=O)c1cccc(NC(=O)c2nn(C(C)C)nc2C)c1 [Compound 407]
0: Barnyardgrass plant response rating ([1]; Postemergence, 125 g ai/ha, scale 0 (no effect) to 100 (complete control)) | Surinam Grass plant response rating [2, 32] | Plant response rating (0 to 100 scale), Corn [4, 30] | Blackgrass plant response rating [11, 32] | Wheat plant response rating [12, 31] | Wheat plant response rating [12, 32] | Oat, Wild plant response rating [13, 31] | Oat, Wild plant response rating [13, 32] | Rice plant response rating ([18]; 62 g ai/ha, scale 0 to 100) | Rice plant response rating [18, 33] | Barnyardgrass plant response rating [21, 26] | Barnyardgrass plant response rating [21, 33] | Barnyardgrass plant response rating [21, 28]
75: Sedge, Umbrella plant response rating [19, 28] | Plant response rating, Sedge, Umbrella [19, 29]
10: Barnyardgrass plant response rating [1, 31] | Plant response rating (0 to 100 scale), Cocklebur [3, 30] | Cocklebur plant response rating [3, 32] | Corn plant response rating [4, 32] | Crabgrass, Large plant response rating [5, 32] | Foxtail, Giant plant response rating [6, 32] | Plant response rating (0 to 100 scale), Velvetleaf [10, 30]
20: Surinam Grass plant response rating [2, 31] | Cocklebur plant response rating [3, 31] | Corn plant response rating [4, 31] | Crabgrass, Large plant response rating [5, 31] | Morningglory plant response rating [8, 32] | Velvetleaf plant response rating [10, 31] | Velvetleaf plant response rating [10, 32] | Blackgrass plant response rating [11, 31] | Rice plant response rating [18, 28] | Sedge, Umbrella plant response rating ([19]; 62 g ai/ha, scale 0 to 100) | Ducksalad plant response rating ([20]; 62 g ai/ha, scale 0 to 100) | Plant response rating, Barnyardgrass [21, 29]
90: Sedge, Umbrella plant response rating [15]
50: Plant response rating (0 to 100 scale), Pigweed [9, 30] | Rice plant response rating [14]
70: Wheat plant response rating ([12]; 500 g ai/ha, scale 0 to 100, 0 no effect, 100 complete control, preemergence)
30: Plant response rating (0 to 100 scale), Surinam Grass [2, 30] | Plant response rating (0 to 100 scale), Foxtail, Giant [6, 30] | Foxtail, Giant plant response rating [6, 31] | Plant response rating (0 to 100 scale), Morningglory [8, 30] | Pigweed plant response rating [9, 32]
60: Lambsquarters plant response rating [7, 31] | Morningglory plant response rating [8, 31] | Sedge, Umbrella plant response rating [19, 33]
40: Plant response rating (0 to 100 scale), Barnyardgrass [1, 30] | Pigweed plant response rating [9, 31] | Plant response rating, Rice [18, 29] | Ducksalad plant response rating [20, 33] | Ducksalad plant response rating [20, 28] | Plant response rating, Ducksalad [20, 29]
80: Plant response rating (0 to 100 scale), Crabgrass, Large [5, 30] | Plant response rating (0 to 100 scale), Lambsquarters [7, 30] | Ducksalad plant response rating [16] | Barnyardgrass plant response rating [17]

Reference: patent publication US20060069132A1, “Azolecarboxamide herbicides” (priority 2004, published 2006)
